Test results: patent publication US6908935B2, “Calcium receptor modulating agents” (Amgen Inc., priority 2002, dated 2005)

Molecular target: T1, human parathyroid cell Ca^2+ receptor (hPCaR) (Homo sapiens, UniProt P41180)
T1 construct: expressed in transfected cells
T1 sequence (P41180 20-1078): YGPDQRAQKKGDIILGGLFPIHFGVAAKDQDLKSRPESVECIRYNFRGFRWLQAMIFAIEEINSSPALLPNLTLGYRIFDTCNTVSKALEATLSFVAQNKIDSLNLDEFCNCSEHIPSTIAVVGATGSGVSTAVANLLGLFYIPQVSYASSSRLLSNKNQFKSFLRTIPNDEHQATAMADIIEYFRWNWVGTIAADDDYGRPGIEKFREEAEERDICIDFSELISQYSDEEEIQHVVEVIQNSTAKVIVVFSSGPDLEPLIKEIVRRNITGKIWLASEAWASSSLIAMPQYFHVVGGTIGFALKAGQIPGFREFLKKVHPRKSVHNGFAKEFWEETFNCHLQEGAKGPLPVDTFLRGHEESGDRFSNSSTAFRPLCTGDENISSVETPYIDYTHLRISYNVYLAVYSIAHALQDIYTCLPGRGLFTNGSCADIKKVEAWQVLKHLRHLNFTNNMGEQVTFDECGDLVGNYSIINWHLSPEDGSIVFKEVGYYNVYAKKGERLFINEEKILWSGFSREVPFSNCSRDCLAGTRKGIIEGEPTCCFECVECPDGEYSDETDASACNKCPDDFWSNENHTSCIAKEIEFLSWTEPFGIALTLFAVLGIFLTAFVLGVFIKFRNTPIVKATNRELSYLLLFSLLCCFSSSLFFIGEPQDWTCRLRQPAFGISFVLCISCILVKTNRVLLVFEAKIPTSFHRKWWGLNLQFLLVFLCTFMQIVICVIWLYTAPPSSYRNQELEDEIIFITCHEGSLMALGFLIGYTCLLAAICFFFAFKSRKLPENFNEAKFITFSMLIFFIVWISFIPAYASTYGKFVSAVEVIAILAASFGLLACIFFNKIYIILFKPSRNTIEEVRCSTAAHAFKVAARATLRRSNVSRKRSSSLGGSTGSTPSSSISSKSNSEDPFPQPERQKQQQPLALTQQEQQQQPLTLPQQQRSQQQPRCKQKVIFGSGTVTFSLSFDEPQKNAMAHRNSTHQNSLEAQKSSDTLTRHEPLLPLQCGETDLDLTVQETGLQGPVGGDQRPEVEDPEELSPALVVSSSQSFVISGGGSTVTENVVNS
Assay: [Ca2+]i measurement with fluo-3 in HEK 293 4.0-7 cells stably transfected with hPCaR
Assay type: cell-based
Conditions: fluo-3 fluorescence (485/530 nm), effect on [Ca^2+]i
Summary of the method: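 Cytosolic [Ca2+] was read as fluo-3 fluorescence (ex 485/em 530 nm) after compound addition to washed cells. Cells were hPCaR-transfected HEK 293 clone 7, dye-loaded 30 min at 37 °C with 2 μM fluo-3 acetoxymethyl ester in HEPES-buffered saline pH 7.45 containing 1 mM CaCl2 and 0.5% BSA.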

EC50 [µM]	Structure (SMILES)
≤ 10	CC(=O)Nc1ccc(-c2cccc(CN[C@H](C)c3ccccc3)c2)cn1 [Example 250, N-(5-(3-((((1R)-1-phenylethyl)amino)methyl)phenyl)-2-pyridinyl)acetamide]
≤ 10	C[C@@H](NCc1ccc(F)c(-c2ccc(F)cc2)c1)c1ccccc1 [Example 251, (1R)-N-((4′,6-difluoro-1,1′-biphenyl-3-yl)methyl)-1-phenylethanamine]
≤ 10	COc1ccc(-c2cc(CN[C@H](C)c3ccccc3)ccc2O)cc1 [Example 391, 4′-(methyloxy)-5-((((1R)-1-phenylethyl)amino)methyl)-1,1′-biphenyl-2-ol]
≤ 10	C[C@@H](NCc1ccc(Cl)c(-c2cccnc2)c1)c1ccccc1 [Example 434, (1R)-N-((4-chloro-3-(3-pyridinyl)phenyl)methyl)-1-phenylethanamine]
≤ 10	COc1cccc(-c2cc(CN[C@H](C)c3ccccc3)ccc2OC)c1 [Example 449, (1R)-N-((3′,6-bis(methyloxy)-1,1′-biphenyl-3-yl)methyl)-1-phenylethanamine]
≤ 10	Cc1ccc(CN[C@H](C)c2ccccc2)cc1-c1cccnc1 [Example 451, (1R)-N-((4-methyl-3-(3-pyridinyl)phenyl)methyl)-1-phenylethanamine]
≤ 10	Cc1noc(-c2cccc(CN[C@H](C)c3ccccc3)c2)n1 [Example 453, (1R)-N-((3-(3-methyl-1,2,4-oxadiazol-5-yl)phenyl)methyl)-1-phenylethanamine]
≤ 10	C[C@@H](NCc1cccc(-c2cncc(C(N)=O)c2)c1)c1cccc2ccccc12 [Example 460, 5-(3-((((1R)-1-(1-naphthalenyl)ethyl)amino)methyl)phenyl)-3-pyridinecarboxamide]
≤ 10	C[C@@H](NCc1cccc(-c2cncc(C(N)=O)c2)c1)c1ccc2ccccc2c1 [Example 461, 5-(3-((((1R)-1-(2-naphthalenyl)ethyl)amino)methyl)phenyl)-3-pyridinecarboxamide]

The remaining lines, values behind:

Structure (SMILES)	EC50 [µM]
COc1ccc(CN[C@H](C)c2ccccc2)cc1-c1cnccn1 [Example 238, (1R)-N-((4-(methyloxy)-3-(2-pyrazinyl)phenyl)methyl)-1-phenylethanamine]	≤ 10
Cc1ccc([C@@H](C)NCc2cccc(-c3ncnc4c3ncn4C)c2)cc1 [Example 241, (1R)-1-(4-methylphenyl)-N-((3-(9-methyl-9H-purin-6-yl)phenyl)methyl)ethanamine]	≤ 10
COc1ccccc1-c1cc(CN[C@H](C)c2ccccc2)ccc1OC [Example 253, (1R)-N-((2′,6-bis(methyloxy)-1,1′-biphenyl-3-yl)methyl)-1-phenylethanamine]	≤ 10
COc1ccc(CN[C@H](C)c2ccccc2)cc1-c1ccc2ocnc2c1 [Example 264, (1R)-N-((3-(1,3-benzoxazol-5-yl)-4-(methyloxy)phenyl)methyl)-1phenylethanamine]	≤ 10
C[C@@H](NCc1ccc(C(F)(F)F)c(-c2ccc(C(F)(F)F)cc2)c1)c1ccccc1 [Example 314, (1R)-N-((4′,6-bis(trifluoromethyl)-1,1′-biphenyl-3-yl)methyl)-1-phenylethanamine]	≤ 10
C[C@@H](NCc1ccc(Cl)c(-c2cccnc2)c1)c1cccc2ccccc12 [Example 435, (1R)-N-((4-chloro-3-(3-pyridinyl)phenyl)methyl)-1-(1-naphthalenyl)ethanamine]	≤ 10
CC[C@@H](NCc1ccc(OC)c(-c2ccc(OC)cc2)c1)c1ccccc1 [Example 450, (1R)-N-((4′,6-bis(methyloxy)-1,1′-biphenyl-3-yl)methyl)-1-phenyl-1-propanamine]	≤ 10
COc1ccc(-c2cc(CN[C@H](C)c3ccccc3)ccc2F)cc1 [Example 465, (1R)-N-((6-fluoro-4′-(methyloxy)-1,1′-biphenyl-3-yl)methyl)-1-phenylethanamine]	≤ 10
